From patent US10857201B2, “NNIF and nNIF-related peptides and related methods” (UNIVERSITY OF UTAH RESEARCH FOUNDATION, priority 2016, dated 2020)
Entries after “also recorded” stand apart in the source; their conditions may differ.

Legend:
[1] = tested on: nuclear histone H3 citrullination; test: Histone H3 citrullination in PMA-activated neutrophils (immunocytochemistry); assay type: cell-based, human; conditions: PMA 20 nM, 15 minutes; peptides 1 nM, Cl-amidine 10 μM
Source text: Green fluorescence=citrullinated-histone H3, magenta fluorescence=nuclear DNA (60× magnification; scale bar=20 μm). The right panel depicts Histone H3 citrullination that was quantified using IMAGEJ™ software (mean citrullinated-histone H3 pixel area per cell±SEM) (n=3). One way ANOVA with Tukey's post hoc testing, *P<0.05.
Imaging was accomplished via confocal microscopy using a FV1000 IX81 confocal microscope and FLUOVIEW™ software (OLYMPUS™). Semi-quantitation was accomplished using IMAGEJ™ software (NIH) to determine the average citrullinated histone H3 content per cell.

[2] = tested on: previously-formed NETs; test: Post-treatment of previously formed NETs (dismantling); assay type: cell-based, human; conditions: agent added after LPS stimulation; nNIF, CRISPP 1 nM; DNase 3.78 U/mL
Method: FIG. 4A is a series of images depicting neutrophils isolated from venous blood of healthy adults that were incubated in medium alone (Control) or activated with LPS (100 ng/mL). CRISPP (1 nM) was added at 0, 30, or 60 minutes after LPS, and the presence of NETs was assessed by live cell imaging as in FIG. 1A after an additional 1 hour of incubation (20× magnification; scale bar=100 μm). The images are representative of three separate experiments.
For selected experiments, primary PMNs were pre-incubated with autologous plasma, cord blood plasma, nNIF (0.2-70 nM), CRISPP (0.2-70 nM), nNIF-SCR (1 nM), or CRISPP-SCR (1 nM) for one hour prior to stimulation. After pre-incubation and/or stimulation, PMNs were gently washed with PBS and incubated with a mixture of cell permeable (SYTO® Green, MOLECULAR PROBES®) and impermeable (SYTOX® Orange, MOLECULAR PROBES®) DNA fluorescent dyes. Confocal microscopy was accomplished using a FV1000 IX81 confocal microscope and FLUOVIEW™ software (OLYMPUS™). Both 20× and 60× objectives were used. Z-series images were obtained at a step size of 1 μm over a range of 20 μm for each field. FLUOVIEW™ and ADOBE™ PHOTOSHOP™ CS2 software was used for image processing.

[3] = target: T1, neutrophil elastase (NE) (Homo sapiens, UniProt P08246); test: Neutrophil elastase activity assay; assay type: biochemical; conditions: in vitro; (MeOSuc)-AAPV-(pNA) 160 μM, 3 hours, 37° C., and additional assays
T1 construct: purchased SIGMA-ALDRICH
T1 sequence (P08246 30-267): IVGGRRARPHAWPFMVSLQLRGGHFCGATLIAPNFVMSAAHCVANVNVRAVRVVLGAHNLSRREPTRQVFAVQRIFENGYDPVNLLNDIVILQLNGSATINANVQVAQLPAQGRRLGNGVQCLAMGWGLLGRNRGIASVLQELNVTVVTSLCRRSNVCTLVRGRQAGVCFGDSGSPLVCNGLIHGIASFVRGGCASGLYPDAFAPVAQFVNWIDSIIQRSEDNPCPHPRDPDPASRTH
Method: FIG. 12B depicts NE enzyme activity that was examined by cleavage of the synthetic substrate (MeOSuc)-AAPV-(pNA) to (MeOSuc)-AAPV and (pNA) as products detected by liquid chromatography and chromatogram peak identification by mass spectroscopy. (MeOSuc)-AAPV-(pNA) (160 μm) was incubated with NE (2 mU), sivelestat (160 μm), or NE and sivelestat (left panel) or with NE (2 mU), nNIF ([…]), or NE and nNIF (right panel) for 3 hours at 37° C. Chromatograms are offset on the X and Y axes for ease of comparison. In the presence of NE alone, the (MeOSvc)-AAPV-(pNA) peak was almost completely eliminated and (MeOSvc)-AAPV and (pNA) peaks were generated. […] In contrast, it was not inhibited by nNIF.
Synthetic fluorogenic substrate of NE, (MeOSuc)-AAPV-(pNA) (160 μM), was incubated with bioactive NE (500 nM)±the NE inhibitor, sivelestat (160 μM) or nNIF (50 nM), for 3 hours at 37° C. The reactions were quenched with 5% glacial acetic acid and centrifuged at 14,000 rpm for 5 minutes. Chromatograms were obtained using an AGILENT™ 1100 Series HPLC and a PHENOMENEX® 5 μm C18 LUNA® column (100 Å, 4.6×150 mm) over a 30 minute 10% to 90% B gradient (Buffer A 0.1% TFA in H2O, Buffer B 0.1% TFA in ACN). Mass spectra were obtained for secondary validation of the reaction products using an API® 3500 triple quadrupole mass spectrometer. Chromatograms were offset on both the X and Y axes (by 0.5 minutes and 0.1 A214, respectively) for greater visibility.

[4] = tested on: PMN phagocytosis; test: Phagocytosis of fluorescently labeled E. coli bioparticles; assay type: cell-based, human; conditions: 4 hour incubation, peptides 1 nM
Method: FIG. 6C is a graph depicting phagocytosis of fluorescently-labeled E. coli bioparticles that were measured by microscopy after a 4 hour incubation. Treatment with cytochalasin B and D served as a control for inhibition of phagocytosis. Student's t test, *P<0.05.
PMNs were isolated from blood of healthy adult donors and resuspended in M-199 at a concentration of 2×10^6 cells/mL. Leukocytes were pre-incubated for 60 minutes under standard conditions with cytochalasin D and B (10 μM), nNIF (1 nM), CRISPP (1 nM), or CRISPP-SCR (1 nM). Following pre-incubation, PMNs were incubated with 6×10^6 E. coli bioparticles (MOLECULAR PROBES®) on a rotator for 4 hours at 37° C. in 5% […] air. The PMNs were then washed and resuspended in the starting volume of M-199 before being spun down onto glass coverslips and fixed with 2% p-FA for 10 minutes and permeabilized with 0.1% Triton-X-100 for 10 minutes. Leukocytes were stained with WGA 555 (INVITROGEN™) and TO-PRO®-3 (MOLECULAR PROBES®), and randomly selected high-power visual field images were captured using confocal microscopy. IMAGEJ™ software (NIH) was used to determine the percentage of PMNs that were positive for fluorescently labeled E. coli bioparticles detected at 488 nm.

[5] = target: T2, recombinant PAD4 (Homo sapiens, UniProt Q9UM07); test: Cell-free PAD4 deimination assay; assay type: biochemical; conditions: for PAD4 activity: cell-free, synthetic substrate, nNIF 1 nM, Cl-amidine 10 μM; for order of potency of inhibition of PAD4: initial comparison of NRPs
T2 construct: purchased CAYMAN
Method: One way ANOVA with Tukey's post hoc testing, ***P<0.001.
nNIF inhibition of PAD4 activity was determined using a PAD4 inhibitor screening assay kit (CAYMAN™). Briefly, nNIF (1 nM) was incubated with recombinant PAD4 and PAD4 enzyme substrate (2 mM) in PAD4 assay reagent for 30 minutes at 37° C. […] The reaction was stopped with PAD4 Stop Solution and detected using an included ammonia detector assay. Ammonia detector fluorescence was measured at 470 nm following excitation at 405 nm on a SPECTRAMAX™ M5 fluorescence plate reader (MOLECULAR DEVICES™).

T2 sequence (Q9UM07 whole entry): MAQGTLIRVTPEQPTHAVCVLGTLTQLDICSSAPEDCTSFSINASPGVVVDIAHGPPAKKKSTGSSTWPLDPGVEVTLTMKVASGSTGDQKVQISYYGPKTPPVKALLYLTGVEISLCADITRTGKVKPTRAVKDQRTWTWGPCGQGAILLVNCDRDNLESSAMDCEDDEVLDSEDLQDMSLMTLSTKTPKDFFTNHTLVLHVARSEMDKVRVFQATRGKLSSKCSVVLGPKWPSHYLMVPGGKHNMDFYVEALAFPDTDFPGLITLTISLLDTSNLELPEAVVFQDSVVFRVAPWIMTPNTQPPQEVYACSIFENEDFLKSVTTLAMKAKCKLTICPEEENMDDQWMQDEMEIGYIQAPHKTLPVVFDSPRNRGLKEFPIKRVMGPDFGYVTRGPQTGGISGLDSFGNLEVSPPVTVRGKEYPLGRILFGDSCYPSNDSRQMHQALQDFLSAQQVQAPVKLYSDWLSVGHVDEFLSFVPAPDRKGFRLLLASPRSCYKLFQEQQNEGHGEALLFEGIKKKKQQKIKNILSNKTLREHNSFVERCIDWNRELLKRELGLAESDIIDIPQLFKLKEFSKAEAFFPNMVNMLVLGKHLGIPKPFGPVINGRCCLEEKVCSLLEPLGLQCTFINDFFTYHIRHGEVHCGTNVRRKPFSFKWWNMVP

Row | Substance | nuclear histone H3 citrullination [1] | degradation or dismantling of previously-formed NETs [2] | NE activity (substrate cleavage) [3] | phagocytosis [4] | PAD4 activity [5] | order of potency of inhibition of PAD4 [5]
1 | KFNKPFVFLMIEQNTKSPLFMGKVVNPTQ (listed as Homo sapiens) [nNIF] | inhibited | do not degrade or dismantle | neither nNIF nor CRISPP inhibited NE activity; also recorded: not inhibited | did not inhibit | blocked its activity | nNIF ≈CRISPP>A1ATm^358
2 | M_IPPEVKFNKPFVFLMIDQNTKVPLFMGK [CRISPP, consensus peptide based on factors present in the blood of patients with cancer] | inhibited | do not degrade or dismantle | neither nNIF nor CRISPP inhibited NE activity | did not inhibit | inhibited | nNIF ≈CRISPP>A1ATm^358
